Laboratory results published in US11957783B2, “Topical immunosensitizers to treat viral and fungal infections” (Squarex, LLC, priority 2018, dated 2024).

Tested on: peripheral blood mononuclear cells (PBMC)
Assay: Cytokine and immune-function gene expression of PBMC in vitro (qRT-PCR, 41 immune-related genes)
Format: cell-based, human
Settings: Group A
Experimental: After a screening visit at which blood was drawn to test for IgG antibody against HSV-1 and subjects were interviewed for inclusion/exclusion criteria, selected subjects returned for blood draws on day 1. After the blood draw on day 1, subjects in group A only were dosed with SADBE. A petrolatum donut was applied with a cotton swab to form about a 1 cm diameter donut on skin on the inner aspect of the upper arm. Then a separate cotton swab was dipped in a 2% SADBE solution (w/v) in DMSO, and the swab was then used to apply about 10-20 mg of solution over about a 1 cm diameter circle within the petrolatum donut. Immediately after application, the application site was covered with TEGADERM. Subjects were advised to remove the TEGADERM and rinse and wipe the spot three hours later. The group A subjects then returned for blood draws on days 15 and 57 and were queried about adverse events on those dates.
PBMC were isolated using SepMate PBMC isolation tubes (Stem Cell Technologies, Vancouver, Canada) and Ficoll-Paque according to the manufacturer's instructions. PBMC were isolated and suspended in negative control medium at 2 million cells/ml. PBMC suspension (100 μL) was added to 100 μL of medium in quadruplicate in 96-well plates. The plates were prepared in advance and stored at −70° C. The wells were in five different conditions in quadruplicate with these final concentrations after addition of the 100 μL of PBMC suspension in negative control medium. • 1. Negative control in medium (RPMI with glutamine and pen/strep, supplemented with 10% human A/B serum). • 2. Medium plus 16 μg/ml protein from heat-inactivated HSV-1-infected Vero cell extracts. • 3. Medium plus heat-inactivated HSV-1 cell-free virus at a final 7.5 million pfu/ml. • 4. Medium plus Candida cell extract. (Greer item number M15A50, 20,000 pnu/ml allergenic extract mixed molds Candida albicans, was diluted 1/50 into medium). • 5. Positive control, medium plus 10 μg/ml concanavalin A.
Two plates were created for each subject at each collection point. One plate was incubated for 2 days at 37° C. in a humidified 5% CO2 atmosphere and then RNA was isolated from the pooled contents of the 4 wells of a given condition for a specific patient, and the RNA was stored at −70° C. and subsequently used for quantitative real time PCR analysis of gene expression of 41 immune-related genes.
As noted above, after 2 days of growth of the PBMC in a 37° C. humidified 5% CO2 incubator in a 96-well plate, four wells of a single condition (negative control, positive control, heat-inactivated HSV-1, HSV-1-infected cell extracts, or Candida extract) with cells from a single subject (200 μL in each well) were pooled, and the RNA was immediately isolated with Trizol reagent and chloroform by Qiagen RNeasy MiniElute clean up kit Qiagen cat #74204, according to manufacturer's instructions into a final volume of 13 μL, and then flash frozen on powdered dry ice, and stored at −70° C. in aliquots of 3 μL for RNA quantification and 10 μL for PCR analysis.
RNA was preamplified with the Qiagen RT2 PreAMP cDNA synthesis kit (Ref. 330451) and custom RT2 PreAmp primer mix (Ref. 330141) starting with about 50 ng RNA according to the procedure of RT preamp cDNA synthesis handbook date March 2011, pages 17-20. The amplification reactions (final 120 μL) were frozen at −70° C. and used for qPCR analysis the next day.
qPCR was done with the Qiagen RT PCR profiler gene analysis kit (catalog number 330451) using RT2 Sybr Green Rox qPCR Mastermix (24) (Part 330523) and Custom RT2 PCR array plates (Ref. 330171). For this 675 μL 2×RT2 SYBR green mastermix, 51 μL pre-AMP synthesis reaction, and 623 μL RNase free water were mixed, and then 25 μL of the mixture was added to 48 wells on the left or right half of the custom PCR plate. The PCR instrument was Applied Biosystems 7900HT fast real time PCR. […]

## CCCCOc1c(OCCCC)c(=O)c1=O [SADBE, 3,4-Dibutoxy-3-cyclobutene-1,2-dione]
HSV-infected cell extracts
  IFNB1 ratio of PBMC absolute gene expression day 57/day 1: 0.65
  IFNG ratio of PBMC absolute gene expression day 15/day 1: 1.26
  IFNG ratio of PBMC absolute gene expression day 57/day 1: 5.72
  IL1B ratio of PBMC absolute gene expression day 15/day 1: 1.48
  IL1B ratio of PBMC absolute gene expression day 57/day 1: 21.45
  IL1R1 ratio of PBMC absolute gene expression day 15/day 1: 0.89
  IL1R1 ratio of PBMC absolute gene expression day 57/day 1: 1.11
  IL1RN ratio of PBMC absolute gene expression day 15/day 1: 0.94
  IL1RN ratio of PBMC absolute gene expression day 57/day 1: 0.79
  IL2 ratio of PBMC absolute gene expression day 15/day 1: 0.98
  IL2 ratio of PBMC absolute gene expression day 57/day 1: 2.48
  IL4 ratio of PBMC absolute gene expression day 15/day 1: 0.77
  IL4 ratio of PBMC absolute gene expression day 57/day 1: 0.89
  IL5 ratio of PBMC absolute gene expression day 15/day 1: 0.83
  IL5 ratio of PBMC absolute gene expression day 57/day 1: 0.50
  IL8 ratio of PBMC absolute gene expression day 15/day 1: 0.99
  IL8 ratio of PBMC absolute gene expression day 57/day 1: 3.86
  IL10 ratio of PBMC absolute gene expression day 15/day 1: 1.19
  IL10 ratio of PBMC absolute gene expression day 57/day 1: 3.29
  IL12A ratio of PBMC absolute gene expression day 15/day 1: 0.90
  IL12A ratio of PBMC absolute gene expression day 57/day 1: 0.89
  IL12B ratio of PBMC absolute gene expression day 15/day 1: 0.80
  IL12B ratio of PBMC absolute gene expression day 57/day 1: 0.23
  IL13 ratio of PBMC absolute gene expression day 15/day 1: 1.01
  IL13 ratio of PBMC absolute gene expression day 57/day 1: 2.28
  IL15 ratio of PBMC absolute gene expression day 15/day 1: 0.93
  IL15 ratio of PBMC absolute gene expression day 57/day 1: 0.87
  IL16 ratio of PBMC absolute gene expression day 15/day 1: 1.03
  IL16 ratio of PBMC absolute gene expression day 57/day 1: 1.02
  JAK2 ratio of PBMC absolute gene expression day 15/day 1: 0.86
  JAK2 ratio of PBMC absolute gene expression day 57/day 1: 0.82
  LTA ratio of PBMC absolute gene expression day 15/day 1: 1.03
  LTA ratio of PBMC absolute gene expression day 57/day 1: 0.99
  LYZ ratio of PBMC absolute gene expression day 15/day 1: 0.73
  LYZ ratio of PBMC absolute gene expression day 57/day 1: 0.29
  MX1 ratio of PBMC absolute gene expression day 15/day 1: 0.89
  MX1 ratio of PBMC absolute gene expression day 57/day 1: 0.66
  NOD1 ratio of PBMC absolute gene expression day 15/day 1: 1.04
  NOD1 ratio of PBMC absolute gene expression day 57/day 1: 0.89
  SPP1 ratio of PBMC absolute gene expression day 15/day 1: 2.09
  SPP1 ratio of PBMC absolute gene expression day 57/day 1: 5.38
  STAT1 ratio of PBMC absolute gene expression day 15/day 1: 0.90
  STAT1 ratio of PBMC absolute gene expression day 57/day 1: 0.91
  STAT4 ratio of PBMC absolute gene expression day 15/day 1: 0.89
  STAT4 ratio of PBMC absolute gene expression day 57/day 1: 1.01
  TNF ratio of PBMC absolute gene expression day 15/day 1: 1.17
  TNF ratio of PBMC absolute gene expression day 57/day 1: 1.2
  TNFSF10 ratio of PBMC absolute gene expression day 15/day 1: 0.84
  TNFSF10 ratio of PBMC absolute gene expression day 57/day 1: 0.88
  TNFSF13B ratio of PBMC absolute gene expression day 15/day 1: 0.93
  TNFSF13B ratio of PBMC absolute gene expression day 57/day 1: 1.07
Neg. control
  CCL2 ratio of PBMC absolute gene expression day 15/day 1: 0.35
  CCL2 ratio of PBMC absolute gene expression day 57/day 1: 1.15
  CCL3 ratio of PBMC absolute gene expression day 15/day 1: 0.47
  CCL3 ratio of PBMC absolute gene expression day 57/day 1: 1.79
  CCL7 ratio of PBMC absolute gene expression day 15/day 1: 0.25
  CCL7 ratio of PBMC absolute gene expression day 57/day 1: 1.35
  CCR5 ratio of PBMC absolute gene expression day 15/day 1: 1.00
  CCR5 ratio of PBMC absolute gene expression day 57/day 1: 1.19
  CD80 ratio of PBMC absolute gene expression day 15/day 1: 0.66
  CD80 ratio of PBMC absolute gene expression day 57/day 1: 1.16
  CXCL2 ratio of PBMC absolute gene expression day 15/day 1: 0.51
  CXCL2 ratio of PBMC absolute gene expression day 57/day 1: 1.33
  CXCL5 ratio of PBMC absolute gene expression day 15/day 1: 0.36
  CXCL5 ratio of PBMC absolute gene expression day 57/day 1: 1.78
  CXCL9 ratio of PBMC absolute gene expression day 15/day 1: 2.50
  CXCL9 ratio of PBMC absolute gene expression day 57/day 1: 4.93
  CXCL10 ratio of PBMC absolute gene expression day 15/day 1: 0.94
  CXCL10 ratio of PBMC absolute gene expression day 57/day 1: 0.68
  CXCL11 ratio of PBMC absolute gene expression day 15/day 1: 0.62
  CXCL11 ratio of PBMC absolute gene expression day 57/day 1: 0.83
  DDX58 ratio of PBMC absolute gene expression day 15/day 1: 0.82
  DDX58 ratio of PBMC absolute gene expression day 57/day 1: 0.83
  FOXP3 ratio of PBMC absolute gene expression day 15/day 1: 0.95
  FOXP3 ratio of PBMC absolute gene expression day 57/day 1: 1.07
  GATA3 ratio of PBMC absolute gene expression day 15/day 1: 1.06
  GATA3 ratio of PBMC absolute gene expression day 57/day 1: 0.84
  ICAM1 ratio of PBMC absolute gene expression day 15/day 1: 1.10
  ICAM1 ratio of PBMC absolute gene expression day 57/day 1: 1.34
  IFNA1 ratio of PBMC absolute gene expression day 15/day 1: 1.20
  IFNA1 ratio of PBMC absolute gene expression day 57/day 1: 1.47
  IFNB1 ratio of PBMC absolute gene expression day 15/day 1: 0.99
  IFNB1 ratio of PBMC absolute gene expression day 57/day 1: 0.73
  IFNG ratio of PBMC absolute gene expression day 15/day 1: 1.05
  IFNG ratio of PBMC absolute gene expression day 57/day 1: 1.24
  IL1B ratio of PBMC absolute gene expression day 15/day 1: 0.16
  IL1B ratio of PBMC absolute gene expression day 57/day 1: 2.09
  IL1R1 ratio of PBMC absolute gene expression day 15/day 1: 1.00
  IL1R1 ratio of PBMC absolute gene expression day 57/day 1: 0.6
  IL1RN ratio of PBMC absolute gene expression day 15/day 1: 0.90
  IL1RN ratio of PBMC absolute gene expression day 57/day 1: 1.35
  IL2 ratio of PBMC absolute gene expression day 15/day 1: 0.80
  IL2 ratio of PBMC absolute gene expression day 57/day 1: 1.21
  IL4 ratio of PBMC absolute gene expression day 15/day 1: 0.86
  IL4 ratio of PBMC absolute gene expression day 57/day 1: 0.98
  IL5 ratio of PBMC absolute gene expression day 15/day 1: 0.99
  IL5 ratio of PBMC absolute gene expression day 57/day 1: 0.39
  IL8 ratio of PBMC absolute gene expression day 15/day 1: 0.62
  IL8 ratio of PBMC absolute gene expression day 57/day 1: 2.38
  IL10 ratio of PBMC absolute gene expression day 15/day 1: 0.90
  IL10 ratio of PBMC absolute gene expression day 57/day 1: 1.04
  IL12A ratio of PBMC absolute gene expression day 15/day 1: 0.84
  IL12A ratio of PBMC absolute gene expression day 57/day 1: 0.98
  IL12B ratio of PBMC absolute gene expression day 15/day 1: 0.40
  IL12B ratio of PBMC absolute gene expression day 57/day 1: 1.38
  IL13 ratio of PBMC absolute gene expression day 15/day 1: 0.88
  IL13 ratio of PBMC absolute gene expression day 57/day 1: 1.69
  IL15 ratio of PBMC absolute gene expression day 15/day 1: 0.95
  IL15 ratio of PBMC absolute gene expression day 57/day 1: 1.13
  IL16 ratio of PBMC absolute gene expression day 15/day 1: 1.06
  IL16 ratio of PBMC absolute gene expression day 57/day 1: 0.89
  JAK2 ratio of PBMC absolute gene expression day 15/day 1: 0.91
  JAK2 ratio of PBMC absolute gene expression day 57/day 1: 0.93
  LTA ratio of PBMC absolute gene expression day 15/day 1: 0.94
